Like-named read-outs stand apart in the source and are kept apart here. Positions of bridges follow the written chain, without caps; N, C: chain ends. Non-standard residues stand in square brackets, D forms with d. Residues, ends and D or L forms follow the SMILES beside them. Nle = CCCC[C@H](N)C(=O)O
Legend:
Assay type in all cases: cell-based, human
[1] = tested on: CD8+ lymphocytes (CD3+, CD8+); conditions: for % Inhibition of cell migration compared to control, CD8+: normalized to untreated control, mean ± SEM of 4-6 experiments
[2] = tested on: memory CD8+ cells (CD3+, CD8+, CD45RO+); conditions: for % Inhibition of cell migration compared to control, Memory CD8+: normalized to untreated control, mean ± SEM of 4-6 experiments
[3] = tested on: memory CD4+ cells (CD3+, CD4+, CD45RO+); conditions: for % Inhibition of cell migration compared to control, Memory CD4+: normalized to untreated control, mean ± SEM of 4-6 experiments

With CCCC[C@@H]1NC(=O)[C@H](C(C)C)NC(=O)[C@H](CCCCN)NC(=O)[C@@H](NC(=O)[C@H](CCC(N)=O)NC(=O)[C@H](CCC(=O)O)NC(C)=O)CSSC[C@@H](C(=O)N[C@@H](CCC(=O)O)C(=O)N[C@@H](CCCCN)C(N)=O)NC(=O)[C@H](CC(N)=O)NC(=O)[C@H](CC(=O)O)NC(=O)[C@H](CC(C)C)NC(=O)[C@@H]2CSSC[C@H](NC1=O)C(=O)N[C@@H](Cc1ccc(O)cc1)C(=O)N[C@@H](C)C(=O)N[C@@H](CCC(N)=O)C(=O)NCC(=O)N[C@@H](C)C(=O)N[C@@H](CCC(=O)O)C(=O)N[C@@H](CC(C)C)C(=O)N1CCC[C@H]1C(=O)N[C@@H](CCC(=O)O)C(=O)N[C@@H](CC(C)C)C(=O)N[C@@H](CC(C)C)C(=O)N[C@@H](CCCNC(=N)N)C(=O)N[C@@H](CCCNC(=N)N)C(=O)N2 [VhTI-pep 2] (Ac-EQCKV[Nle]CYAQGAELPELLRRCLDNCEK-NH2; disulfide 3-25, 7-21) the “% Inhibition of cell migration compared to control, CD8+” value ([1]; 0.1 μM) was 37.0 ± 6.4%, the “% Inhibition of cell migration compared to control, CD8+” value ([1]; 1 μM) was 41.7 ± 8.5% and the EC50 ([1]; EC monolayer pretreated with peptide, healthy-donor PBMC, 4 h, mean ± SD, 4 independent measurements, read-out: EC50, inhibition of CD8+ cell migration) was 7.7 ± 11.4 nM. The “maximal effect of inhibition of cell migration, CD8+ lymphocytes” value ([1]; from the concentration-response experiment) was 40.0 ± 2.8%, the “% Inhibition of cell migration compared to control, Memory CD8+” value ([2]; 0.1 μM) was 23.0 ± 6.9% and the “% Inhibition of cell migration compared to control, Memory CD8+” value ([2]; 1 μM) was 21.9 ± 8.1%. The EC50 ([2]; EC monolayer pretreated with peptide, healthy-donor PBMC, 4 h, mean ± SD, 4 independent measurements, read-out: EC50, inhibition of memory CD8+ cell migration) was 6.3 ± 9.7 nM, the “% Inhibition of cell migration compared to control, Memory CD4+” value ([3]; 0.1 μM) was 34.4 ± 16.7% and the “% Inhibition of cell migration compared to control, Memory CD4+” value ([3]; 1 μM) was 31.5 ± 10.4%. It also gave an EC50 ([3]; EC monolayer pretreated with peptide, healthy-donor PBMC, 4 h, mean ± SD, 4 independent measurements, read-out: EC50, inhibition of memory CD4+ cell migration) of 9.8 ± 16.5 nM.

Reference: article PMC12406255, “Engineering Peptide Modulators for T‑Cell Migration by Structural Scaffold Matching” (Journal of Medicinal Chemistry, 2025)
